Tests used:
Fusarium culmorum = assay: whole plant or invertebrate; assay type: in vivo, Fusarium culmorum on wheat spikelets cv. Monsun; conditions: in Triticum aestivum, read-out: control of Fusarium culmorum

Row | Structure (SMILES) | melting point [°C] | pest or weed control at 200 ppm (Fusarium culmorum) [%]
1 | CC(C)CC(C)(Cc1ccccc1)C(=O)Nc1cnc2c(Cl)cccc2c1 (centres unmarked) [Compound E-9, 2-benzyl-N-(8-chloro-3-quinolyl)-2,4-dimethyl-pentanamide] | 163 to 165 | –
2 | C=C(C)CC(C)(Cc1cccc(F)c1)C(=O)Nc1cnc2c(F)cccc2c1 (centres unmarked) [Compound E-11, 2-[(3-fluorophenyl)-methyl]-N-(8-fluoro-3-quinolyl)-2,4-dimethyl-pent-4-enamide] | 125 to 127 | –
3 | C=C(C)CC(C)(Cc1cccc(F)c1)C(=O)Nc1cc2cccc(F)c2nc1C (centres unmarked) [Compound E-12, N-(8-fluoro-2-methyl-3-quinolyl)-2-[(3-fluorophenyl)methyl]-2,4-dimethyl-pent-4-enamide] | 124 to 126 | –
4 | Cc1c(NC(=O)C(C)(Cc2ccccc2)CC(C)C)cnc2c(Cl)cccc12 (centres unmarked) [Compound E-14, 2-benzyl-N-(8-chloro-4-methyl-3-quinolyl)-2,4-dimethyl-pentanamide] | 124 to 126 | –
5 | Cc1c(NC(=O)C(C)(Cc2ccccc2)CC(F)(F)F)cnc2c(Cl)cccc12 (centres unmarked) [Compound E-15, 2-benzyl-N-(8-chloro-4-methyl-3-quinolyl)-4,4,4-trifluoro-2-methyl-butanamide] | 73 to 75 | –
6 | CC(Cc1ccccc1)(CC1(F)CC1)C(=O)Nc1cnc2c(F)cccc2c1 (centres unmarked) [Compound E-25, 2-benzyl-3-(1-fluorocyclopropyl)-N-(8-fluoro-3-quinolyl)-2-methyl-propanamide] | 162 to 164 | ≥ 80
7 | C/C=C\CC(C)(Cc1ccccc1)C(=O)Nc1cnc2c(F)cccc2c1 (centres unmarked) [Compound E-28, (Z)-2-benzyl-N-(8-fluoro-3-quinolyl)-2-methyl-hex-4-enamide] | 128 to 130 | ≥ 80
8 | CC(Cc1ccccc1)C(=O)Nc1cnc2c(F)cccc2c1 (centres unmarked) [Compound E-31, N-(8-fluoro-3-quinolyl)-2-methyl-3-phenyl-propanamide] | 188 to 190 | –
9 | C/C=C(\C)CC(C)(Cc1ccccc1)C(=O)Nc1cnc2c(F)cccc2c1 (centres unmarked) [Compound E-32, (E)-2-benzyl-N-(8-fluoro-3-quinolyl)-2,4-dimethyl-hex-4-enamide] | – | ≥ 80
10 | COCN(C(=O)C(C)(Cc1ccccc1)CC(F)(F)F)c1cnc2c(F)cccc2c1 (centres unmarked) [Compound E-33, 2-benzyl-4,4,4-trifluoro-N-(8-fluoro-3-quinolyl)-N-(methoxymethyl)-2-methyl-butanamide] | 108 to 110 | –
11 | CC(C)CC(Cc1ccccc1)C(=O)Nc1cnc2c(F)cccc2c1 (centres unmarked) [Compound E-35, 2-benzyl-N-(8-fluoro-3-quinolyl)-4-methyl-pentanamide] | – | ≥ 80
12 | COC(Cc1ccccc1)(CC(C)C)C(=O)Nc1cc2cccc(F)c2nc1C (centres unmarked) [Compound E-37, 2-benzyl-N-(8-fluoro-2-methyl-3-quinolyl)-2-methoxy-4-methyl-pentanamide] | 92 to 94 | ≥ 80
13 | COC(Cc1ccccc1)(CC(C)C)C(=O)Nc1cnc2c(F)cccc2c1 (centres unmarked) [Compound E-38, 2-benzyl-N-(8-fluoro-3-quinolyl)-2-methoxy-4-methyl-pentanamide] | 133 to 135 | ≥ 80
14 | Cc1nc2c(F)cccc2cc1NC(=O)C(C)(Cc1ccccc1)OC(C)C (centres unmarked) [Compound E-39, N-(8-fluoro-2-methyl-3-quinolyl)-2-isopropoxy-2-methyl-3-phenyl-propanamide] | – | ≥ 80
15 | CC(C)OC(C)(Cc1ccccc1)C(=O)Nc1cnc2c(F)cccc2c1 (centres unmarked) [Compound E-40, N-(8-fluoro-3-quinolyl)-2-isopropoxy-2-methyl-3-phenyl-propanamide] | – | ≥ 80
16 | COC(C)(Cc1ccccc1)C(=O)Nc1cc2cccc(F)c2nc1C (centres unmarked) [Compound E-41, N-(8-fluoro-2-methyl-3-quinolyl)-2-methoxy-2-methyl-3-phenyl-propanamide] | – | ≥ 80
17 | CN(C(=O)C(C)(Cc1ccccc1)CC(F)(F)F)c1cnc2c(F)cccc2c1 (centres unmarked) [Compound E-42, 2-benzyl-4,4,4-trifluoro-N-(8-fluoro-3-quinolyl)-N,2-dimethyl-butanamide] | 137 to 139 | –
18 | COC(C)(Cc1ccccc1)C(=O)Nc1cnc2c(F)cccc2c1 (centres unmarked) [Compound E-43, N-(8-fluoro-3-quinolyl)-2-methoxy-2-methyl-3-phenyl-propanamide] | 107 to 109 | ≥ 80
19 | Cc1nc2c(F)cccc2cc1NC(=O)C(C)(Cc1ccccc1)CC(F)(F)F (centres unmarked) [Compound E-47, 2-benzyl-4,4,4-trifluoro-N-(8-fluoro-2-methyl-3-quinolyl)-2-methyl-butanamide] | – | ≥ 80
20 | CC(C)=CC(C)(Cc1ccccc1)C(=O)Nc1cnc2c(F)cccc2c1 (centres unmarked) [Compound E-48, 2-benzyl-N-(8-fluoro-3-quinolyl)-2,4-dimethyl-pent-3-enamide] | 167 to 169 | ≥ 80
21 | CC(Cc1ccccc1)(CC(F)(F)F)C(=O)Nc1cnc2cccc(F)c2c1 (centres unmarked) [Compound E-49, 2-benzyl-4,4,4-trifluoro-N-(5-fluoro-3-quinolyl)-2-methyl-butanamide] | 140 to 142 | –

Row | Structure (SMILES) | melting point [°C] | pest or weed control at 200 ppm (Fusarium culmorum) [%]
22 | CC(Cc1ccccc1)(CC(F)(F)F)C(=O)Nc1cnc2c(Cl)cccc2c1 (centres unmarked) [Compound E-51, 2-benzyl-N-(8-chloro-3-quinolyl)-4,4,4-trifluoro-2-methyl-butanamide] | 104 to 106 | ≥ 80
23 | CC(Cc1ccccc1)(CC(F)(F)F)C(=O)Nc1cnc2cc(F)ccc2c1 (centres unmarked) [Compound E-52, 2-benzyl-4,4,4-trifluoro-N-(7-fluoro-3-quinolyl)-2-methyl-butanamide] | 180 to 182 | –
24 | C=C(Cl)CC(C)(Cc1ccccc1)C(=O)Nc1cnc2c(F)cccc2c1 (centres unmarked) [Compound E-53, 2-benzyl-4-chloro-N-(8-fluoro-3-quinolyl)-2-methyl-pent-4-enamide] | 148 to 150 | ≥ 80
25 | C=C(CC)CC(C)(Cc1ccccc1)C(=O)Nc1cnc2c(F)cccc2c1 (centres unmarked) [Compound E-54, 2-benzyl-N-(8-fluoro-3-quinolyl)-2-methyl-4-methylene-hexanamide] | 118 to 120 | –
26 | CC(Cc1ccccc1)(CC(F)F)C(=O)Nc1cnc2c(F)cccc2c1 (centres unmarked) [Compound E-55, 2-benzyl-4,4-difluoro-N-(8-fluoro-3-quinolyl)-2-methyl-butanamide] | – | ≥ 80
27 | CC(Cc1ccccc1)(CC(F)(F)Cl)C(=O)Nc1cnc2c(F)cccc2c1 (centres unmarked) [Compound E-56, 2-benzyl-4-chloro-4,4-difluoro-N-(8-fluoro-3-quinolyl)-2-methyl-butanamide] | – | ≥ 80
28 | CC(C=C(F)F)(Cc1ccccc1)C(=O)Nc1cnc2c(F)cccc2c1 (centres unmarked) [Compound E-57, 2-benzyl-4,4-difluoro-N-(8-fluoro-3-quinolyl)-2-methyl-but-3-enamide] | – | ≥ 80
29 | O=C(Nc1cnc2c(F)cccc2c1)C(Cc1ccccc1)CC(F)(F)Cl (centres unmarked) [Compound E-58, 2-benzyl-4-chloro-4,4-difluoro-N-(8-fluoro-3-quinolyl)butanamide] | 65 to 70 | ≥ 80
30 | C=C(C)CC(C)(Cc1ccccc1)C(=O)Nc1cnc2ccccc2c1 (centres unmarked) [Compound E-64, 2-benzyl-2,4-dimethyl-N-(3-quinolyl)pent-4-enamide] | – | ≥ 80
31 | C=C(C)CC(C)(Cc1ccccc1)C(=O)Nc1cnc2c(F)cccc2c1C (centres unmarked) [Compound E-65, 2-benzyl-N-(8-fluoro-4-methyl-3-quinolyl)-2,4-dimethyl-pent-4-enamide] | 105 to 109 | –
32 | C=C(C)CC(C)(Cc1ccccc1)C(=O)Nc1cc2cccc(F)c2nc1C (centres unmarked) [Compound E-66, 2-benzyl-N-(8-fluoro-2-methyl-3-quinolyl)-2,4-dimethyl-pent-4-enamide] | – | ≥ 80
33 | CC(C)(Cc1ccccc1)C(=O)Nc1cnc2c(F)cccc2c1 [Compound E-69, N-(8-fluoro-3-quinolyl)-2,2-dimethyl-3-phenyl-propanamide] | – | ≥ 80
34 | CC1(CC(C)(Cc2ccccc2)C(=O)Nc2cnc3c(F)cccc3c2)CC1 (centres unmarked) [Compound E-70, 2-benzyl-N-(8-fluoro-3-quinolyl)-2-methyl-3-(1-methylcyclopropyl)propanamide] | 149 to 151 | –
35 | CCCC(C)(Cc1ccccc1)C(=O)Nc1cnc2c(F)cccc2c1 (centres unmarked) [Compound E-77, 2-benzyl-N-(8-fluoro-3-quinolyl)-2-methyl-pentanamide] | – | ≥ 80
36 | CC(Cc1ccccc1)(CC(F)(F)F)C(=O)Nc1cnc2ccccc2c1 (centres unmarked) [Compound E-81, 2-benzyl-4,4,4-trifluoro-2-methyl-N-(3-quinolyl)butanamide] | – | ≥ 80
37 | CC(C)CC(C#N)(Cc1ccccc1)C(=O)Nc1cnc2c(F)cccc2c1 (centres unmarked) [Compound E-83, 2-benzyl-2-cyano-N-(8-fluoro-3-quinolyl)-4-methyl-pentanamide] | – | ≥ 80
38 | Cc1nc2c(F)cccc2cc1NC(=O)[C@](C)(Cc1ccccc1)CC(C)C [Compound F-7, (2S)-2-benzyl-N-(8-fluoro-2-methyl-3-quinolyl)-2,4-dimethyl-pentanamide] | – | ≥ 80
39 | Cc1nc2c(F)cccc2cc1NC(=O)[C@@](C)(Cc1ccccc1)CC(C)C [Compound F-8, (2R)-2-benzyl-N-(8-fluoro-2-methyl-3-quinolyl)-2,4-dimethyl-pentanamide] | – | ≥ 80
40 | Cc1c(NC(=O)[C@](C)(Cc2ccccc2)CC(F)(F)F)cnc2c(F)cccc12 [Compound F-13, (2R)-2-benzyl-4,4,4-trifluoro-N-(8-fluoro-4-methyl-3-quinolyl)-2-methyl-butanamide] | – | ≥ 80
41 | Cc1c(NC(=O)[C@@](C)(Cc2ccccc2)CC(F)(F)F)cnc2c(F)cccc12 [Compound F-14, (2S)-2-benzyl-4,4,4-trifluoro-N-(8-fluoro-4-methyl-3-quinolyl)-2-methyl-butanamide] | – | ≥ 80

Source: patent US20220030867A1 (priority 2018, published 2022)
